Source: patent US12617759B2, “Modifier of four-membered ring derivative, preparation method and application thereof” (Shanghai Hansoh Biomedical Co., Ltd., priority 2019, dated 2026)
Read-outs that look alike come from different tables or passages of the source.

Key:
[1] = Pharmacokinetic assay in Balb/c mice (plasma and brain tissue); assay type: in vivo; settings: male, mouse, po, p.o. 5 mg/kg; for AUC(0-t): read-out: Area under curve AUC0-t; for Tmax: read-out: Peak time tmax; for Cmax: read-out: Plasma concentration Cmax
Description: Balb/c mice were used as test animals. The pharmacokinetic behavior in mouse body (plasma and brain tissue) of the compounds of Examples of the present invention orally administrated at a dose of 5 mg/kg was studied.
Male Balb/c mice (12 mice per group), purchased from Shanghai Jiesijie Laboratory Animal Co., LTD, with Certificate No.: SCXK (Shanghai) 2013-0006 N0.311620400001794.
The test compound was dissolved in 0.5% CMC-Na (1% Tween80) by sonication to formulate a clear solution or homogeneous suspension.
After an overnight fast, male Balb/c mice (12 mice per group) were administered p.o. with the test compound at an administration dose of 5 mg/kg and an administration volume of 10 mL/kg.
0.2 mL of blood was taken from the heart of the mouse before administration and at 1, 2, 4, 8 and 24 hours after administration, and the mice were sacrificed with CO2. The samples were stored in EDTA-K2 tubes, and centrifuged for 6 minutes at 4° C., 6000 rpm to separate the plasma. The plasma samples were stored at −80° C. Whole brain tissue was taken out, weighed, placed in a 2 mL centrifuge tube, and stored at −80° C.
• 1) 160 μL of acetonitrile was added to 40 μL of the plasma sample for precipitation, and then the mixture was centrifuged for 5 to 20 minutes at 3500×g. • 2) 90 μL of acetonitrile containing internal standard (100 ng/mL) was added to 30 µL of the plasma and brain homogenate sample for precipitation, and then the mixture was centrifuged for 8 minutes at 13000 rpm. • 3) 70 μL of water was added to 70 μL of the treated supernatant and mixed by vortex for 10 minutes. 20 μL of the supernatant was taken to analyze the concentration of the test compound by LC/MS/MS. LC/MS/MS analytical instrument: AB Sciex API 4000 Qtrap. 2.7 Liquid Chromatography Analysis: • Liquid chromatography condition: Shimadzu LC-20AD pump • Chromatographic column: Agilent ZORBAX XDB-C18 (50×2.1 mm, 3.5 m); Mobile phase: Eluent A was 0.1% formic acid in water, and Eluent B was acetonitrile • Flow rate: 0.4 mL/min • Elution time: 0-4.0 minutes, the eluent is as follows:
The main parameters of pharmacokinetics were calculated by WinNonlin 6.1.

[2] = Stability in human liver microsome in vitro; assay type: in vitro ADME
Description: (§1) To evaluate the metabolic stability of the compounds of the present invention in liver microsome in vitro.
(§2) Formulation of the working solution of the compound: 2 μL of the stock solution of the compound was added to 998 μL of phosphate buffer, and the final concentration was 20 μM.
(§3) 78.1 μL of 20 mg/mL microsome was diluted to 2.5 mL with 100 mM phosphate buffer and mixed well, and the final concentration was 0.625 mg/mL.
(§4) 33.3 mg of NADPH and 25.8 mg of UDPGA were weighed respectively, followed by the addition of 2 mL of 100 mM phosphate buffer. The final concentrations were 20 mM.
(§5) 1 mg of Alamethicin was weighed, to which 200 μL of DMSO was added to obtain a 5 mg/mL solution. 10 μL of this solution was added to 990 μL of phosphate buffer (pH 7.4), and the final concentration was 50 μg/mL.
(§6) 400 μL of the formulated liver microsome, 25 μL of the working solution of the compound (10 μM) and 25 μL of Alamethicin (50 μg/mL) were added to a 96-well plate successively, which was then pre-incubated at 37° C. for 10 min. 50 μL of the formulated NADPH/UDPGA was added to initiate the reaction, and the plate was incubated at 37° C. The total volume of the reaction system was 500 μL. The final contents of the components are as follows:
(§7) […] The resulting sample was centrifuged at 4000 g for 10 min, and the supernatant was collected for LC-MS/MS analysis.

[3] = Stability in rat liver microsome in vitro; assay type: in vitro ADME, SD rat
Description: as §1, §2, §3, §4, §5, §6, §7

[4] = Stability in dog liver microsome in vitro; assay type: in vitro ADME
Description: as §1, §2, §3, §4, §5, §6, §7

[5] = tested on: rats; assay: Pharmacodynamic model of active escape experiment in rats; assay type: in vivo; settings: F344 rats, oral dose 1 mg/kg one hour before test; vehicle 91-98%
Description: To evaluate the anti-schizophrenic effect of the compounds using the pharmacodynamic model of the active escape experiment in rats.
A prescription amount of the compound was weighed, followed by the addition of a prescription volume of 0.5% CMC-Na+1% Tween 80 solution. The compound solution was formulated before the administration, stored at 2 to 8° C., and used within 4 days.
5.2 Baseline Test and Grouping
The day before the compound screening test, a baseline test was performed. The test process was the same as 5.1.1 to 5.1.3, and the number of the baseline test was 20. The animals whose number of avoids reached 16 (80%) were grouped according to the number of avoids, 10 animals per group. The first group was administered with the vehicle orally, and the other groups were administered with the corresponding test compounds according to the experimental design.
The compound was administered orally (5 mL/kg) one hour before the test; The test process was the same as 5.1.1 to 5.1.4, and the number of the test was 20.
The following data was collected by the software for data analysis: • Number of avoids of the animal; • Number of escape failures of the animal; • Escape latency of the animal; • All measurement data were expressed as mean±standard error (Mean±SEM), and analyzed by Graphpad 6 statistical software. The difference was considered to be significant when p<0.05. 7.

## O=C(N[C@H]1C[C@H](CCN2CCN(c3cccc(Cl)c3Cl)CC2)C1)c1ccon1 [Example 25A, N-(Trans-3-(2-(4-(2,3-dichlorophenyl)piperazin-1-yl)ethyl)cyclobutyl)isoxazole-3-carboxamide]
[1]; Brain
  AUC(0-t): 11900 ng·h/mL
  Tmax: 1 h
  Cmax: 1540 ng/mL
[1]; Plasma
  AUC(0-t): 3050 ng·h/mL
  Tmax: 0.5 h
  Cmax: 362 ng/mL
[1]; Plasma, read-out: Area under curve AUC0-∞
  AUC(0-inf): 12900 ng·h/mL
[1]; Plasma, read-out: Average residence time MRT
  MRT: 6.2 h
[1]; Plasma, read-out: Half life t1/2 (converted)
  half-life: 5.6 h
[2]; 120 min
  Remaining (%, 120 min): 38.8%
[2]; human liver microsomes, pH 7.4, 1 μM compound, NADPH/UDPGA, read-out: Half life (t1/2)
  half-life at 1 μM: 1.5 h
[2]; human liver microsomes, pH 7.4, 1 μM compound, NADPH/UDPGA, read-out: Intrinsic clearance rate (CLint)
  microsomal CLint at 1 μM: 15.4 µL/min/mg
[3]; 120 min
  Remaining (%, 120 min): 27.0%
[3]; SD, rat liver microsomes, pH 7.4, 1 μM compound, NADPH/UDPGA, read-out: Half life (t1/2)
  half-life at 1 μM: 1.01 h
[3]; SD, rat liver microsomes, pH 7.4, 1 μM compound, NADPH/UDPGA, read-out: Intrinsic clearance rate (CLint)
  microsomal CLint at 1 μM: 22.9 µL/min/mg
[4]; 120 min
  Remaining (%, 120 min): 30.2%
[4]; dog liver microsomes, pH 7.4, 1 μM compound, NADPH/UDPGA, read-out: Half life (t1/2)
  half-life at 1 μM: 1.16 h
[4]; dog liver microsomes, pH 7.4, 1 μM compound, NADPH/UDPGA, read-out: Intrinsic clearance rate (CLint)
  microsomal CLint at 1 μM: 19.9 µL/min/mg
[5]
  CAR value: 18%
